Measured values reported in PubChem BioAssay AID2060489 (Molecular Pharmacology Branch, DTP, NCI, 2025).

System: 922993-354-T-J3-PDC complex spheroids, viability
Experiment: Anticancer human tumor 922993-354-T-J3-PDC patient-derived endometrial carcinoma cell line growth inhibition [GQUAD]
Conditions: for IC50: curve of first compound; for viability, T/C: stronger effect = lower value
Method in brief: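 Multi-cell-type spheroids of tumor cells with HUVEC and mesenchymal stem cells, treated with drug combinations. Concentrations descend in half-log steps from near clinical Cmax, or from 10 microM where Cmax is unknown; viability read-out.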

[1] = second compound 0.0316 µM, first compound 0.0316 µM
[2] = second compound 0.0316 µM, first compound 0.1 µM
[3] = second compound 0.0316 µM, first compound 0.316 µM
[4] = second compound 0.0316 µM, first compound 1 µM
[5] = second compound 0.0316 µM, first compound 3.16 µM
[6] = second compound 0.0316 µM, first compound 10 µM
[7] = second compound 0.1 µM, first compound 0.0316 µM
[8] = second compound 0.1 µM, first compound 0.1 µM
[9] = second compound 0.1 µM, first compound 0.316 µM
[10] = second compound 0.1 µM, first compound 1 µM
[11] = second compound 0.1 µM, first compound 3.16 µM
[12] = second compound 0.1 µM, first compound 10 µM
[13] = second compound 0.316 µM, first compound 0.0316 µM
[14] = second compound 0.316 µM, first compound 0.1 µM
[15] = second compound 0.316 µM, first compound 0.316 µM
[16] = second compound 0.316 µM, first compound 1 µM
[17] = second compound 0.316 µM, first compound 3.16 µM
[18] = second compound 0.316 µM, first compound 10 µM
[19] = second compound 1 µM, first compound 0.0316 µM
[20] = second compound 1 µM, first compound 0.1 µM
[21] = second compound 1 µM, first compound 0.316 µM
[22] = second compound 1 µM, first compound 1 µM
[23] = second compound 1 µM, first compound 3.16 µM
[24] = second compound 1 µM, first compound 10 µM
[25] = second compound 3.16 µM, first compound 0.0316 µM
[26] = second compound 3.16 µM, first compound 0.1 µM
[27] = second compound 3.16 µM, first compound 0.316 µM
[28] = second compound 3.16 µM, first compound 1 µM
[29] = second compound 3.16 µM, first compound 3.16 µM
[30] = second compound 3.16 µM, first compound 10 µM
[31] = second compound 10 µM, first compound 0.0316 µM
[32] = second compound 10 µM, first compound 0.1 µM
[33] = second compound 10 µM, first compound 0.316 µM
[34] = second compound 10 µM, first compound 1 µM
[35] = second compound 10 µM, first compound 3.16 µM
[36] = second compound 10 µM, first compound 10 µM
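Further: spheroids exposed to compounds for seven days.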
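Wherever viability, T/C is given: 100% = DMSO vehicle control viability.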

In the case of CC(C)(O)C1CCC(Nc2ccc3ncc(-c4cccc(C(F)(F)F)c4)n3n2)CC1 (stereo not drawn) + Cc1[nH]c2ccc(F)cc2c1-c1nc2c3cccnc3c3ncccc3c2[nH]1, the IC50 (second compound 0.0316 µM) is reported as > 10 µM, the IC50 (second compound 0.1 µM) is reported as > 10 µM and the IC50 (second compound 0.316 µM) is reported as > 10 µM. For the same compound, the IC50 (second compound 1 µM) was > 10 µM, the IC50 (second compound 3.16 µM) was > 10 µM and the IC50 (second compound 10 µM) was > 10 µM. It also gave a viability, T/C [1] of 96.5%, a viability, T/C [2] of 93.5% and a viability, T/C [3] of 76.6%. For the same compound, the viability, T/C [4] was 84.5%, the viability, T/C [5] was 72.9% and the viability, T/C [6] was 66.5%. The viability, T/C [7] was 95.6%, the viability, T/C [8] was 77% and the viability, T/C [9] was 99.1%. The viability, T/C [10] was 77.3%, the viability, T/C [11] was 85% and the viability, T/C [12] was 77.2%. It also gave a viability, T/C [13] of 99.7%, a viability, T/C [14] of 87.4% and a viability, T/C [15] of 91.2%. For the same compound, the viability, T/C [16] was 108%, the viability, T/C [17] was 81.6% and the viability, T/C [18] was 62.6%. For the same compound, the viability, T/C [19] was 86.5%, the viability, T/C [20] was 104% and the viability, T/C [21] was 92.6%. The viability, T/C [22] was 87.5%, the viability, T/C [23] was 77.7% and the viability, T/C [24] was 66.4%. For the same compound, the viability, T/C [25] was 95.2%, the viability, T/C [26] was 80.2% and the viability, T/C [27] was 111%. The viability, T/C [28] was 79.8%, the viability, T/C [29] was 94.7% and the viability, T/C [30] was 67%. The viability, T/C [31] was 105%, the viability, T/C [32] was 105% and the viability, T/C [33] was 84.6%. For the same compound, the viability, T/C [34] was 99.8%, the viability, T/C [35] was 72.8% and the viability, T/C [36] was 61.6%.

In the case of Cc1cccc(N(C)C(=O)C2C(O)CCN2c2nc(C)cc(C(F)(F)F)c2C#N)c1 (stereo not drawn) + Cc1[nH]c2ccc(F)cc2c1-c1nc2c3cccnc3c3ncccc3c2[nH]1, the IC50 (second compound 0.0316 µM) is reported as > 10 µM, the IC50 (second compound 0.1 µM) is reported as > 10 µM and the IC50 (second compound 0.316 µM) is reported as > 10 µM. The IC50 (second compound 1 µM) was > 10 µM, the IC50 (second compound 3.16 µM) was > 10 µM and the IC50 (second compound 10 µM) was > 10 µM. The viability, T/C [1] was 111%, the viability, T/C [2] was 112% and the viability, T/C [3] was 80.8%. It also gave a viability, T/C [4] of 94%, a viability, T/C [5] of 120% and a viability, T/C [6] of 82.9%. The viability, T/C [7] was 108%, the viability, T/C [8] was 122% and the viability, T/C [9] was 97.7%. The viability, T/C [10] was 135%, the viability, T/C [11] was 120% and the viability, T/C [12] was 126%. It also gave a viability, T/C [13] of 90.7%, a viability, T/C [14] of 112% and a viability, T/C [15] of 74.7%. It also gave a viability, T/C [16] of 104%, a viability, T/C [17] of 87.9% and a viability, T/C [18] of 99.3%. It also gave a viability, T/C [19] of 112%, a viability, T/C [20] of 96.5% and a viability, T/C [21] of 104%. It also gave a viability, T/C [22] of 114%, a viability, T/C [23] of 102% and a viability, T/C [24] of 97.3%. For the same compound, the viability, T/C [25] was 123%, the viability, T/C [26] was 121% and the viability, T/C [27] was 103%. For the same compound, the viability, T/C [28] was 96.9%, the viability, T/C [29] was 129% and the viability, T/C [30] was 73.8%. It also gave a viability, T/C [31] of 87%, a viability, T/C [32] of 94.3% and a viability, T/C [33] of 109%. It also gave a viability, T/C [34] of 111%, a viability, T/C [35] of 95.4% and a viability, T/C [36] of 123%.

With CC[C@@]1(O)C(=O)OCc2c1cc1n(c2=O)Cc2cc3c(CN(C)C)c(O)ccc3nc2-1 + CN(C)c1ccc(Nc2c3ccc(NC(=O)CCN4CCCC4)cc3nc3cc(NC(=O)CCN4CCCC4)ccc23)cc1 the IC50 (second compound 0.0316 µM) was 0.279 µM, the IC50 (second compound 0.1 µM) was > 0.316 µM and the IC50 (second compound 0.316 µM) was 0.286 µM. For the same compound, the IC50 (second compound 1 µM) was 0.265 µM, the IC50 (second compound 3.16 µM) was 0.302 µM and the IC50 (second compound 10 µM) was > 0.316 µM. For the same compound, the viability, T/C (second compound 0.0316 µM, first compound 0.000999 µM) was 100%, the viability, T/C (second compound 0.0316 µM, first compound 0.00316 µM) was 74.3% and the viability, T/C (second compound 0.0316 µM, first compound 0.00999 µM) was 99.8%. For the same compound, the viability, T/C [1] was 91.9%, the viability, T/C (second compound 0.0316 µM, first compound 0.0999 µM) was 77.3% and the viability, T/C [3] was 46.6%. For the same compound, the viability, T/C (second compound 0.1 µM, first compound 0.000999 µM) was 120%, the viability, T/C (second compound 0.1 µM, first compound 0.00316 µM) was 110% and the viability, T/C (second compound 0.1 µM, first compound 0.00999 µM) was 89.3%. For the same compound, the viability, T/C [7] was 82.7%, the viability, T/C (second compound 0.1 µM, first compound 0.0999 µM) was 88.9% and the viability, T/C [9] was 43.4%. For the same compound, the viability, T/C (second compound 0.316 µM, first compound 0.000999 µM) was 90.5%, the viability, T/C (second compound 0.316 µM, first compound 0.00316 µM) was 98.4% and the viability, T/C (second compound 0.316 µM, first compound 0.00999 µM) was 79.2%. It also gave a viability, T/C [13] of 84%, a viability, T/C (second compound 0.316 µM, first compound 0.0999 µM) of 92.5% and a viability, T/C [15] of 46.2%. For the same compound, the viability, T/C (second compound 1 µM, first compound 0.000999 µM) was 100%, the viability, T/C (second compound 1 µM, first compound 0.00316 µM) was 106% and the viability, T/C (second compound 1 µM, first compound 0.00999 µM) was 97.7%. It also gave a viability, T/C [19] of 94.5%, a viability, T/C (second compound 1 µM, first compound 0.0999 µM) of 76.8% and a viability, T/C [21] of 45.1%. The viability, T/C (second compound 3.16 µM, first compound 0.000999 µM) was 101%, the viability, T/C (second compound 3.16 µM, first compound 0.00316 µM) was 109% and the viability, T/C (second compound 3.16 µM, first compound 0.00999 µM) was 99.6%. For the same compound, the viability, T/C [25] was 117%, the viability, T/C (second compound 3.16 µM, first compound 0.0999 µM) was 115% and the viability, T/C [27] was 47.6%. It also gave a viability, T/C (second compound 10 µM, first compound 0.000999 µM) of 109%, a viability, T/C (second compound 10 µM, first compound 0.00316 µM) of 115% and a viability, T/C (second compound 10 µM, first compound 0.00999 µM) of 110%. It also gave a viability, T/C [31] of 97.3%, a viability, T/C (second compound 10 µM, first compound 0.0999 µM) of 115% and a viability, T/C [33] of 59.4%.

C#Cc1c(F)ccc2cc(O)cc(-c3ncc4c(N5CC6CCC(C5)N6)nc(OCC56CCCN5CC(F)C6)nc4c3F)c12 (stereo not drawn) + CN(C)c1ccc(Nc2c3ccc(NC(=O)CCN4CCCC4)cc3nc3cc(NC(=O)CCN4CCCC4)ccc23)cc1 was tested, and the IC50 (second compound 0.0316 µM) was > 10 µM, the IC50 (second compound 0.1 µM) was > 10 µM and the IC50 (second compound 0.316 µM) was > 10 µM. The IC50 (second compound 1 µM) was > 10 µM, the IC50 (second compound 3.16 µM) was > 10 µM and the IC50 (second compound 10 µM) was > 10 µM. The viability, T/C [1] was 93.8%, the viability, T/C [2] was 78.5% and the viability, T/C [3] was 97.2%. For the same compound, the viability, T/C [4] was 86.9%, the viability, T/C [5] was 95.3% and the viability, T/C [6] was 81.5%. It also gave a viability, T/C [7] of 99.4%, a viability, T/C [8] of 89.3% and a viability, T/C [9] of 94.3%. It also gave a viability, T/C [10] of 100%, a viability, T/C [11] of 82.3% and a viability, T/C [12] of 95.9%. For the same compound, the viability, T/C [13] was 71.9%, the viability, T/C [14] was 97.4% and the viability, T/C [15] was 97.7%. The viability, T/C [16] was 81%, the viability, T/C [17] was 87% and the viability, T/C [18] was 76%. For the same compound, the viability, T/C [19] was 71.4%, the viability, T/C [20] was 86.9% and the viability, T/C [21] was 88.7%. The viability, T/C [22] was 85.4%, the viability, T/C [23] was 84% and the viability, T/C [24] was 88.1%. For the same compound, the viability, T/C [25] was 116%, the viability, T/C [26] was 102% and the viability, T/C [27] was 129%. For the same compound, the viability, T/C [28] was 100%, the viability, T/C [29] was 108% and the viability, T/C [30] was 92.8%. It also gave a viability, T/C [31] of 88.3%, a viability, T/C [32] of 133% and a viability, T/C [33] of 108%. It also gave a viability, T/C [34] of 133%, a viability, T/C [35] of 104% and a viability, T/C [36] of 94.6%.
